Test results reported in article PMC2654408 (PLoS ONE, 2009).
Where “and” joins values, the source holds several entries; their conditions need not be identical. Identical values can stand only once. Like-named read-outs stand apart in the source and are kept apart here. Where no end group is shown, it is not given here.

Assays:
[1] = target: T1, α7-nAChR (Homo sapiens, UniProt P36544); experiment: biochemical; type: binding; details: for [125I]α-BTX binding compared with control maximum specific binding: Mean±SEM
T1 construct: host or cells: GH4-hα7 (rat pituitary tumor GH4 cells stably transfected with human α7-nAChR)
T1 sequence (P36544 23-502): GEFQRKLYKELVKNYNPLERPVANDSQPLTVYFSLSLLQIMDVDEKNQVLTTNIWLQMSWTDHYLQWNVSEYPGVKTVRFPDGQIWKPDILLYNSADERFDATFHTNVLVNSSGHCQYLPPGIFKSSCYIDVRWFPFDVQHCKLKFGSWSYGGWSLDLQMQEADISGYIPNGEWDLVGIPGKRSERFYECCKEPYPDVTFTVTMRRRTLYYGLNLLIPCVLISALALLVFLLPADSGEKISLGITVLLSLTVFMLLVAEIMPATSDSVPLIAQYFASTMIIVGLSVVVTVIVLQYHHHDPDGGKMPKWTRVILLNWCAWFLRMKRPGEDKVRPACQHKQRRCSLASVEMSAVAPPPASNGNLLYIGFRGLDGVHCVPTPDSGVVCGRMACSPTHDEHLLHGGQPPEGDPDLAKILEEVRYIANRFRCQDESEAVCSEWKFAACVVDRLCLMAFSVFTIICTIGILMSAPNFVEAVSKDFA
Method: (§1) For membrane binding experiments, confluent cells were scraped off 75 cm^2 culture plates into ice-cold lysis buffer (20 mM Tris-HCl, pH 7.0, 5 mM ethylenediaminetetraacetic acid (EDTA), and 1× protease inhibitor cocktail (Roche Diagnostics, Ltd.,West Sussex, UK). After pelleting by centrifugation for 10 min at 13,000 rpm, cells were resuspended in 7 ml ice-cold lysis buffer, lysed by Dounce homogenization, and then centrifuged at 1000×g for 10 min. Supernatant was removed and the extraction process repeated. The supernatants were combined and centrifuged at 50,000 rpm (70 Ti rotor) for 30 min (Beckman Ultracentrifuge). All centrifugations were carried out at 4°C. The pelleted membranes were resuspended in binding buffer (50 mM Tris-HCl, 120 mM NaCl, 5 mM KCl, 1 mM MgCl2, 2.5 mM CaCl2, pH 7.0) and protein concentration determined using the DC Protein Assay kit (Bio-Rad Laboratories, Ltd., Hemel Hempstead, UK). Binding assays were assembled on ice in borosilicate glass test tubes with 50–100 µg membrane protein in binding buffer in a final volume of 250 µl. Binding reactions were incubated at 4°C overnight, and then terminated by rapid vacuum filtration using a Brandel Cell Harvester onto Whatman GF/B glass fibre filters pre-soaked in 0.4% polyethylenimine. Saturation binding experiments were performed with [^125I]α-BTX concentrations ranging from 0.03–100 nM. Displacement binding experiments were performed with a constant [^125I]α-BTX concentration of 2.0 nM. Non-specific binding was determined with 10 µM MLA.
(§2) Ligand binding data were analyzed using GraphPad Prism 4.03 (GraphPad Software, Inc.) Saturation binding data were fitted by nonlinear regression with a hyperbolic function for a one-binding site model. Displacement binding data were fitted by nonlinear regression for a one-site binding competition model, unless otherwise noted. RT-PCR band density data was analysed using Student's t-test for comparison of individual means with control values and by one-way ANOVA followed by Tukey's multiple comparison test for comparison of test groups and effect of MLA inhibition effects.

[2] = test system: α7-nAChR mRNA expression; experiment: RT-PCR analysis of α7-nAChR mRNA expression in GH4-hα7 cells; type: cell-based, human
Method: To assess the effects of T-AChE C-terminal peptides on α7-nAChR mRNA expression, total cellular RNA was isolated and analysed for gene-specific expression levels using reverse transcriptase PCR. Specifics of primer design and sequences used in RT-PCR experiments are described in the methods. […] Expression of the housekeeping gene glyceraldehyde 3-phosphate dehydrogenase (GAPDH) was used as a standard for comparative analysis. RT-PCR analysis was performed in control GH4-hα7 cells and those exposed to AChE peptides at concentrations ranging from 1 nM to 1 µM for 24 hr (Fig. 5A). […] A similar high level of α7-nAChR expression was achieved after treatment with only 1 nM T30.
as §2, with “Displacement binding data were fitted by nonlinear regression for a one-site binding competition model, unless otherwise noted.” left out
Primers for RNA analysis were designed using the Primer3 program and analysed for structural anomalies and dimer formation using NetPrimer software (Premier Biosoft International, Palo Alto, USA). […]

[3] = target: human alpha-7 nicotinic acetylcholine receptor (human) (UniProt P36544)
human alpha-7 nicotinic acetylcholine receptor (human), sequence (P36544 23-502): as above

[4] = target: human alpha-7 nicotinic acetylcholine receptor (human) (UniProt P36544); experiment: radioligand binding
[5] = target: T1, α7-nAChR; experiment: Acute live cell [125I]α-BTX binding in GH4-hα7 cells; details: for efficacy in competition with [125I]α-BTX for receptor binding sites: 10 µM peptide
Method: Initial experiments were performed to characterize the binding parameters of the human α7-nAChR heterologously expressed in the rat GH4-hα7 cell line using a live-cell binding method. Saturation binding was carried out with [^125I]alpha-bungarotoxin ([^125I]α-BTX) concentrations ranging from 0.03 nM to 100 nM. Non-specific binding was determined in the presence of 10 µM methyllycaconitine (MLA).
For live cell binding experiments, cells were seeded into 6-well plates at a density of 1×10^5 cells/well and allowed to recover for 24–48 hours before experimentation. Cells were treated with indicated peptides or α7-nAChR ligands for 30 min at 37°C in cell medium containing 1% FBS. Then [^125I]α-bungarotoxin ([^125I]α-BTX; 150 Ci/mmol) was added and cells were incubated at 37°C for a further 1.5 hr. Cell layers were washed 3× with 2 ml serum-free DMEM, then 0.5 ml 1 M NaOH was added to each well to lyse cells. Cell lysates were transferred to 5 ml scintillation fluid and radioactivity was determined using a Beckman LS6000IC scintillation counter.
as §2

[6] = target: T1, α7-nAChR; experiment: Saturation binding on cell membranes after chronic 24 hr peptide treatment of GH4-hα7 cells; type: cell-based; details: 24 hr treatment with 100 nM peptide; read-out: Kd±SEM, receptor affinity for α-BTX
Method: as §1
as §2, with “Displacement binding data were fitted by nonlinear regression for a one-site binding competition model, unless otherwise noted.” left out

[7] = target: T2, human alpha-7 nicotinic acetylcholine receptor (human, UniProt P36544 23-502); experiment: radioligand binding; details: one partner purified
T2 construct: human alpha-7 nicotinic acetylcholine receptor, heterologously expressed in the rat GH4-hα7 cell line; Used on live cells and as purified membranes of the same cell line; also called α7-nAChR; CHRNA7; source: on live cells and in purified cell membranes
T2 sequence (P36544 23-502): as above

[8] = target: T2, human alpha-7 nicotinic acetylcholine …; experiment: radioligand binding; details: one partner purified; remark: listed apart in the source
[9] = live cells, [125I]α-BTX displacement, read-out: Ki, high affinity site

## CC(=O)OCC[N+](C)(C)C [ACh, acetylcholine]
[1]; membranes, ligand at its EC50, varying concentrations of T30
  decrease in specific binding efficacy in the presence of T30 compared with ligand alone: 18%

## C[N+](C)(C)CCO [Choline, choline]
[1]
  decrease in specific binding efficacy in the presence of T30 compared with ligand alone: 36%
[1]; IC50±SEM
  IC50: 123000 nM and 126000 nM and 225000 nM and 357000 nM and 737000 nM
[1]; Ki±SEM
  Ki: 85900 nM and 88900 nM and 157000 nM and 250000 nM and 515000 nM

## CCN1C[C@]2(COC(=O)c3ccccc3N3C(=O)C[C@H](C)C3=O)CC[C@H](OC)[C@@]34[C@@H]5C[C@H]6[C@H](OC)[C@@H]5[C@](O)(C[C@@H]6OC)[C@@](O)([C@@H](OC)[C@H]23)[C@@H]14 [MLA, methyllycaconitine]
[2]
  α7-nAChR mRNA expression, relative band density: 1.58±0.12
[1]
  decrease in specific binding efficacy in the presence of T30 compared with ligand alone: 24%
[1]; IC50
  IC50: 15.5 nM and 9.5 nM

## AChE C-terminal peptide T14
[3]
  α7-nAChR mRNA expression by RT-PCR (relative band density against GAPDH) in GH4-hα7 cells after 24 hr with 1 nM to 1 µM T14 (relative band density): 2.72

## AChE C-terminal peptide T30
[3]
  α7-nAChR mRNA expression by RT-PCR (relative band density against GAPDH) in GH4-hα7 cells after 24 hr with 1 nM to 1 µM T30 (relative band density): 2.98
[4]
  Ki, high affinity site: 0.0168 nM
  Ki, second, lower affinity site: 47.1 nM

## AEFHRWSSYMVHWK [T14]
[5]; live cells
  efficacy in competition with [125I]α-BTX for receptor binding sites: approximately 40%
[5]; [9]
  Ki: 0.653 ± 0.0126 nM
[1]; membranes, 1 µM peptide
  [125I]α-BTX binding compared with control maximum specific binding: 90.11±3.5%
[1]; membranes, 10 µM peptide
  [125I]α-BTX binding compared with control maximum specific binding: 87.91±1.9%
[6]
  Kd: 9.06 ± 0.93 nM

## KAEFHRWSSYMVHWKNQFDHYSKQERCSDL [T30]
[5]; live cells
  efficacy in competition with [125I]α-BTX for receptor binding sites: 70%
[5]; [9]
  Ki: 0.0168 ± 0.0018 nM
[5]; live cells, two-site competition model, read-out: Ki, second lower affinity site
  Ki: 47.1 ± 2.8 nM
[1]; membranes, 1 µM peptide
  [125I]α-BTX binding compared with control maximum specific binding: 110.9±3.6%
[1]; membranes, 10 µM peptide
  [125I]α-BTX binding compared with control maximum specific binding: 117.3±4.9%
[6]
  Kd: 12 ± 1.39 nM

## NQFDHYSKQERCSDL [T15]
[6]
  Kd: 4.91 ± 0.53 nM

## [^125I]alpha-bungarotoxin [[^125I]α-BTX]
[5]
  Bmax: 965.8±28.9 fmol/mg protein
  Kd: 4.68 ± 0.61 nM

B1: [125I]alpha-bungarotoxin (ligand)
chain: IVCHTTATSPISAVTCPPGENLCYRKMWCDAFCSSRGKVVELGCAATCPSKKPYEEVTCCSTDKCNPHPKQRPG
[7]
  Kd: 4.68 nM
[8]
  Kd: 4.66 nM and 9.06 nM and 12 nM and 4.91 nM

B2: T-AChE: full-length tailed isoform of acetylcholinesterase (protein)
chain: EGREDAELLVTVRGGRLRGIRLKTPGGPVSAFLGIPFAEPPMGPRRFLPPEPKQPWSGVVDATTFQSVCYQYVDTLYPGFEGTEMWNPNRELSEDCLYLNVWTPYPRPTSPTPVLVWIYGGGFYSGASSLDVYDGRFLVQAERTVLVSMNYRVGAFGFLALPGSREAPGNVGLLDQRLALQWVQENVAAFGGDPTSVTLFGESAGAASVGMHLLSPPSRGLFHRAVLQSGAPNGPWATVGMGEARRRATQLAHLVGCPPGGTGGNDTELVACLRTRPAQVLVNHEWHVLPQESVFRFSFVPVVDGDFLSDTPEALINAGDFHGLQVLVGVVKDEGSYFLVYGAPGFSKDNESLISRAEFLAGVRVGVPQVSDLAAEAVVLHYTDWLHPEDPARLREALSDVVGDHNVVCPVAQLAGRLAAQGARVYAYVFEHRASTLSWPLWMGVPHGYEIEFIFGIPLDPSRNYTAEEKIFAQRLMRYWANFARTGDPNEPRDPKAPQWPPYTAGAQQYVSLDLRPLEVRRGLRAQACAFWNRFLPKLLSATDTLDEAERQWKAEFHRWSSYMVHWKNQFDHYSKQDRCSDL
[2]; 10 nM protein, 24 hr
  change in α7-nAChR mRNA expression: neither the full length T-AChE molecule (p = 0.3419), nor the truncated T548 (p = 0.1778), effected a significant change
[5]; live cells, controls (Fig. 2D)
  effect on [125I]α-BTX binding to the α7-nAChR: neither full-length T-AChE, nor truncated T548, had an effect
